# Reference: ChEMBL document CHEMBL4665770, “Design and Discovery of Natural Cyclopeptide Skeleton Based Programmed Death Ligand 1 Inhibitor as Immune Modulator for Cancer Therapy” (J Med Chem, 2020)
# Square brackets hold non-standard residues; d marks the D form. Peptide text beside a SMILES is read from it.
# Target: Programmed cell death protein 1/Programmed cell death 1 ligand 1 (Homo sapiens) (UniProt Q15116+Q9NZQ7)
# Assay: Inhibition of PD1-Tag2/PD-L1-Tag1 (unknown origin) protein-protein interaction at 20 uM preincubated for 15 mins followed by addition of anti-Tag1-Eu3+ and anti-Tag2-XL665 measured after 3 hrs by HTRF assay relative to control
# Type: protein-complex assay
# Settings: time 195.0 min
row,Compound,inhibition [%]
1,CC(NCCCC[C@@H]1NC(=O)[C@@H](Cc2ccccc2)NC(=O)[C@H](CC(C)C)NC(=O)[C@H](CC(=O)O)NC(=O)[C@H](C(C)C)NC(=O)[C@@H]2CCCN2C(=O)[C@@H](Cc2c[nH]c3ccccc23)NC(=O)[C@H](CC(C)C)NC(=O)[C@H](CCCNC(=N)N)NC(=O)[C@H](C(C)C)NC1=O)=C1C(=O)CC(C)(C)CC1=O,3.86
2,CC(C)C[C@@H]1NC(=O)[C@H](CC(=O)O)NC(=O)[C@H](C(C)C)NC(=O)[C@@H]2CCCN2C(=O)[C@@H](Cc2ccccc2)NC(=O)[C@H](CC(C)C)NC(=O)[C@H](CCCNC(=N)N)NC(=O)[C@H](CCC(=O)O)NC(=O)[C@@H]2CCCN2C(=O)[C@@H](Cc2ccccc2)NC1=O,-3.03
3,CC(NCCCC[C@@H]1NC(=O)[C@@H]2CCCN2C(=O)[C@@H](Cc2ccccc2)NC(=O)[C@H](CC(C)C)NC(=O)[C@H](CC(=O)O)NC(=O)[C@H]([C@@H](C)O)NC(=O)[C@@H]2CCCN2C(=O)[C@@H](Cc2c[nH]c3ccccc23)NC(=O)[C@H](CC(C)C)NC(=O)[C@H](CCCNC(=N)N)NC1=O)=C1C(=O)CC(C)(C)CC1=O,13.1
4,CC(C)C[C@@H]1NC(=O)[C@H](CC(=O)O)NC(=O)[C@H]([C@@H](C)O)NC(=O)[C@@H]2CCCN2C(=O)[C@@H](Cc2c[nH]c3ccccc23)NC(=O)[C@H](CC(C)C)NC(=O)[C@H](CCCNC(=N)N)NC(=O)[C@H](C(C)C)NC(=O)[C@@H]2CCCN2C(=O)[C@@H](Cc2ccccc2)NC1=O (cyclo(DL[dF]PVRL[dW]PT)),43.4
5,CC(C)C[C@@H]1NC(=O)[C@H](CCCNC(=N)N)NC(=O)[C@H](C)NC(=O)[C@@H]2CCCN2C(=O)[C@@H](Cc2ccccc2)NC(=O)[C@H](C)NC(=O)[C@H](CCCNC(=N)N)NC(=O)[C@H](C(C)C)NC(=O)[C@@H]2CCCN2C(=O)[C@@H](Cc2ccccc2)NC1=O (cyclo(ARL[dF]PVRA[dF]P)),6.3
6,CCCC[C@@H]1NC(=O)[C@H](CC(=O)O)NC(=O)[C@H]([C@@H](C)O)NC(=O)[C@@H]2CCCN2C(=O)[C@@H](Cc2c[nH]c3ccccc23)NC(=O)[C@H](CC(C)C)NC(=O)[C@H](CCCNC(=N)N)NC(=O)[C@H](C(C)C)NC(=O)[C@H](CCCCNC(C)=C2C(=O)CC(C)(C)CC2=O)NC(=O)[C@@H](Cc2ccccc2)NC1=O,-2.81
7,CC(C)C[C@@H]1NC(=O)[C@H](CC(=O)O)NC(=O)[C@H]([C@@H](C)O)NC(=O)[C@@H]2CCCN2C(=O)[C@@H](Cc2ccccc2)NC(=O)[C@H](CC(C)C)NC(=O)[C@H](CCC(N)=O)NC(=O)[C@H](C(C)C)NC(=O)[C@@H]2CCCN2C(=O)[C@@H](Cc2ccccc2)NC1=O (cyclo(DL[dF]PVQL[dF]PT)),47.5
8,CC(C)C[C@@H]1NC(=O)[C@H](CC(=O)O)NC(=O)[C@H](C(C)C)NC(=O)[C@@H]2CCCN2C(=O)[C@@H](Cc2ccccc2)NC(=O)[C@H](CC(C)C)NC(=O)[C@H](CCCNC(=N)N)NC(=O)[C@H](C(C)C)NC(=O)[C@@H]2CCCN2C(=O)[C@@H](CCC(=O)O)NC1=O (cyclo(DL[dE]PVRL[dF]PV)),22.5
9,CC(C)C[C@@H]1NC(=O)[C@H](COP(=O)(O)O)NC(=O)[C@H]([C@@H](C)O)NC(=O)[C@@H]2CCCN2C(=O)[C@@H](Cc2ccccc2)NC(=O)[C@H](CC(C)C)NC(=O)[C@H](CCCNC(=N)N)NC(=O)[C@H](C(C)C)NC(=O)[C@@H]2CCCN2C(=O)[C@@H](Cc2ccccc2)NC1=O,26
10,CC(C)C[C@@H]1NC(=O)[C@H](CC(=O)O)NC(=O)[C@H]([C@@H](C)O)NC(=O)[C@@H]2CCCN2C(=O)[C@@H](Cc2ccccc2)NC(=O)[C@H](CC(C)C)NC(=O)[C@H](CC(=O)O)NC(=O)[C@H](C(C)C)NC(=O)[C@@H]2CCCN2C(=O)[C@@H](Cc2ccccc2)NC1=O,-6.65
11,CC(NCCCC[C@@H]1NC(=O)[C@@H](Cc2ccccc2)NC(=O)[C@H](CC(C)C)NC(=O)[C@H](CC(=O)O)NC(=O)[C@H]([C@@H](C)O)N(C)C(=O)[C@@H]2CCCN2C(=O)[C@@H](Cc2c[nH]c3ccccc23)NC(=O)[C@H](CC(C)C)NC(=O)[C@H](CCCNC(=N)N)NC(=O)[C@H](C(C)C)NC1=O)=C1C(=O)CC(C)(C)CC1=O,32.3
12,CC(C)C[C@@H]1NC(=O)[C@H](C)NC(=O)[C@H](C(C)C)NC(=O)[C@@H]2CCCN2C(=O)[C@@H](Cc2ccccc2)NC(=O)[C@H](CC(C)C)NC(=O)[C@H](CCCNC(=N)N)NC(=O)[C@H](C(C)C)NC(=O)[C@@H]2CCCN2C(=O)[C@@H](Cc2ccccc2)NC1=O (cyclo(AL[dF]PVRL[dF]PV)),28.8
13,CC(C)C[C@@H]1NC(=O)[C@H](CC(=O)O)NC(=O)[C@H](CCCNC(=N)N)NC(=O)[C@H](C(C)C)NC(=O)[C@@H]2CCCN2C(=O)[C@@H](Cc2ccccc2)NC(=O)[C@H](CC(C)C)NC(=O)[C@H]([C@@H](C)O)NC(=O)[C@@H]2CCCN2C(=O)[C@@H](Cc2ccccc2)NC1=O (cyclo(DL[dF]PTL[dF]PVR)),-7.34
14,CC(C)C[C@@H]1NC(=O)[C@H](CC(=O)O)NC(=O)[C@H]([C@@H](C)O)NC(=O)[C@@H]2CCCN2C(=O)[C@@H](Cc2ccccc2)NC(=O)[C@H](CC(N)=O)NC(=O)[C@H](CCCNC(=N)N)NC(=O)[C@H](C(C)C)NC(=O)[C@@H]2CCCN2C(=O)[C@@H](Cc2ccccc2)NC1=O (cyclo(DL[dF]PVRN[dF]PT)),17.4
15,CC(C)C[C@@H]1NC(=O)[C@H](CCCNC(=N)N)NC(=O)[C@H](C(C)C)NC(=O)[C@@H]2CCCN2C(=O)[C@@H](Cc2ccccc2)NC(=O)[C@H](C)NC(=O)[C@H](C)NC(=O)[C@H](C(C)C)NC(=O)[C@@H]2CCCN2C(=O)[C@@H](Cc2ccccc2)NC1=O (cyclo(AA[dF]PVRL[dF]PV)),16.7
16,CC(C)C[C@@H]1NC(=O)[C@H](CCCNC(=N)N)NC(=O)[C@H](C(C)C)NC(=O)[C@@H]2CCCN2C(=O)[C@H](CC(=O)O)NC(=O)[C@@H](Cc2ccccc2)NC(=O)[C@H](CC(C)C)NC(=O)[C@H]([C@@H](C)O)NC(=O)[C@@H]2CCCN2C(=O)[C@@H](Cc2ccccc2)NC1=O (cyclo(DPVRL[dF]PTL[dF])),-0.905
17,CC(C)C[C@@H]1NC(=O)[C@H](CCCNC(=N)N)NC(=O)[C@H](C(C)C)NC(=O)[C@@H]2CCCN2C(=O)[C@@H](Cc2ccccc2)NC(=O)[C@H](CC(C)C)NC(=O)[C@H]([C@@H](C)O)NC(=O)[C@@H]2CCCN2C(=O)[C@H](CC(=O)O)NC(=O)[C@@H](Cc2ccccc2)NC1=O (cyclo(DPTL[dF]PVRL[dF])),12.9
18,CC(C)C[C@@H]1NC(=O)[C@H](CCCNC(=N)N)NC(=O)[C@H](C(C)C)NC(=O)[C@H](CC(=O)O)NC(=O)[C@@H]2CCCN2C(=O)[C@@H](Cc2ccccc2)NC(=O)[C@H](CC(C)C)NC(=O)[C@H]([C@@H](C)O)NC(=O)[C@@H]2CCCN2C(=O)[C@@H](Cc2ccccc2)NC1=O (cyclo(DVRL[dF]PTL[dF]P)),1.93
19,CC(C)C[C@@H]1NC(=O)[C@H](CC(N)=O)NC(=O)[C@H]([C@@H](C)O)NC(=O)[C@@H]2CCCN2C(=O)[C@@H](Cc2ccccc2)NC(=O)[C@H](CC(C)C)NC(=O)[C@H](CCCNC(=N)N)NC(=O)[C@H](C(C)C)NC(=O)[C@@H]2CCCN2C(=O)[C@@H](Cc2ccccc2)NC1=O (cyclo(L[dF]PTNL[dF]PVR)),17
20,CC(C)C[C@@H]1NC(=O)[C@H](CC(=O)O)NC(=O)[C@H]([C@@H](C)O)NC(=O)[C@@H]2CCCN2C(=O)[C@@H](Cc2ccccc2)NC(=O)[C@H](CC(C)C)NC(=O)[C@H](CC(N)=O)NC(=O)[C@H](C(C)C)NC(=O)[C@@H]2CCCN2C(=O)[C@@H](Cc2ccccc2)NC1=O (cyclo(DL[dF]PVNL[dF]PT)),16.6
21,CC(NCCCC[C@@H]1NC(=O)[C@@H](Cc2ccccc2)NC(=O)[C@H](CC(C)C)NC(=O)[C@H](CC(=O)O)NC(=O)[C@H]([C@@H](C)O)NC(=O)[C@@H]2CCCN2C(=O)[C@@H](Cc2c[nH]c3ccccc23)NC(=O)[C@H](CC(C)C)N(C)C(=O)[C@H](CCCNC(=N)N)NC(=O)[C@H](C(C)C)NC1=O)=C1C(=O)CC(C)(C)CC1=O,16.1
22,CC(C)C[C@@H]1NC(=O)[C@H](CC(=O)O)NC(=O)[C@H](C(C)C)NC(=O)[C@@H]2CCCN2C(=O)[C@@H](Cc2ccccc2)NC(=O)[C@H](C)NC(=O)[C@H](CCCNC(=N)N)NC(=O)[C@H](C)NC(=O)[C@@H]2CCCN2C(=O)[C@@H](Cc2ccccc2)NC1=O (cyclo(ARA[dF]PVDL[dF]P)),33.7
23,CC(C)C[C@@H]1NC(=O)[C@H](CCCNC(=N)N)NC(=O)[C@H](C(C)C)NC(=O)[C@@H]2CCCN2C(=O)[C@@H](Cc2ccccc2)NC(=O)[C@H](CC(C)C)NC(=O)[C@H](CCCNC(=N)N)NC(=O)[C@H](C(C)C)NC(=O)[C@@H]2CCCN2C(=O)[C@@H](C)NC1=O (cyclo(L[dA]PVRL[dF]PVR)),9.49
24,CC(C)C[C@@H]1NC(=O)[C@H](CC(=O)O)NC(=O)[C@H]([C@@H](C)O)NC(=O)[C@@H]2CCCN2C(=O)[C@@H](Cc2ccccc2)NC(=O)[C@H](CC(C)C)NC(=O)[C@H](Cc2cnc[nH]2)NC(=O)[C@H](C(C)C)NC(=O)[C@@H]2CCCN2C(=O)[C@@H](Cc2ccccc2)NC1=O (cyclo(DL[dF]PVHL[dF]PT)),6.8
25,CC(C)C[C@@H]1NC(=O)[C@H](CC(=O)O)NC(=O)[C@H]([C@@H](C)O)NC(=O)[C@@H]2CCCN2C(=O)[C@@H](Cc2ccccc2)NC(=O)[C@H](CC(C)C)NC(=O)[C@H](CCCNC(=N)N)NC(=O)[C@H](C(C)C)NC(=O)[C@@H]2CCCN2C(=O)[C@@H](Cc2c[nH]c3ccccc23)NC1=O (cyclo(DL[dW]PVRL[dF]PT)),35.8
26,CC(C)C[C@@H]1NC(=O)[C@H](CCCNC(=N)N)NC(=O)[C@H](C(C)C)NC(=O)[C@@H]2CCCN2C(=O)[C@@H](Cc2ccccc2)NC(=O)[C@H](CC(C)C)NC(=O)[C@H]([C@@H](C)O)NC(=O)[C@H](CC(=O)O)NC(=O)[C@@H]2CCCN2C(=O)[C@@H](Cc2ccccc2)NC1=O (cyclo(DTL[dF]PVRL[dF]P)),23.9
27,CC(C)C[C@@H]1NC(=O)[C@H](CCCNC(=N)N)NC(=O)[C@H]([C@@H](C)O)NC(=O)[C@@H]2CCCN2C(=O)[C@@H](Cc2ccccc2)NC(=O)[C@H](CC(C)C)NC(=O)[C@H](CC(=O)O)NC(=O)[C@H](C)NC(=O)[C@@H]2CCCN2C(=O)[C@@H](Cc2ccccc2)NC1=O (cyclo(ADL[dF]PTRL[dF]P)),41.2
